From US9695155B2, “Herbicidal substituted pyrimidinyloxy benzene compounds” (E. I. DU PONT DE NEMOURS AND COMPANY, priority 2013, dated 2017)

How the values were obtained:
morningglory [1] = assay: Test C postemergence; assay type: in vivo, Ipomoea coccinea
How it was run: (§1)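 Greenhouse herbicide screen. Pre: seeded loam/sand, sprayed at planting. Post: 1–4 leaf plants (2–18 cm) in peat-based mix. Formulation: solvent mixture + surfactant, non-phytotoxic. Readout: visual % control vs untreated, 13–15 d; dash = not tested.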

giant foxtail [2] = assay: Test C postemergence; assay type: in vivo, Setaria faberii; conditions: Setaria faberi, post-emergence
How it was run: as §1

velvetleaf [3] = assay: Test C preemergence; assay type: in vivo, Abutilon theophrasti; conditions: Abutilon theophrasti, pre-emergence
How it was run: as §1

galium = assay: Test C postemergence; assay type: in vivo, Galium aparine; conditions: Galium, post-emergence
How it was run: as §1

corn = assay: Test C preemergence; assay type: in vivo, Zea mays; conditions: Zea mays, pre-emergence
How it was run: as §1

velvetleaf [4] = assay: Test A postemergence; assay type: in vivo, Abutilon theophrasti; conditions: 0 to 100 scale where 0 is no effect and 100 is complete control
How it was run: (§2)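 Injury scores run from 0, no effect, to 100, complete control, judged by eye against untreated plants roughly 10 days after treatment. Chemicals carried a surfactant in a non-phytotoxic solvent and went onto loam–sand soil preemergence or onto one- to two-leaf seedlings postemergence.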

yellow nutsedge = assay: Test C postemergence; assay type: in vivo, Cyperus esculentus
How it was run: as §1

wheat, winter = assay: Test C postemergence; assay type: in vivo, Triticum aestivum
How it was run: as §1

ragweed = assay: Test C postemergence; assay type: in vivo, Ambrosia elatior
How it was run: as §1

morningglory [5] = assay: Test C preemergence; assay type: in vivo, Ipomoea coccinea; conditions: Ipomoea, pre-emergence
How it was run: as §1

sedge, umbrella = assay: Test B flooded paddy test; assay type: in vivo, Cyperus difformis; conditions: Cyperus difformis, Flood, 250 g ai/ha; 0 to 100 scale where 0 is no effect and 100 is complete control; read-out: Plant response rating, Sedge, Umbrella
How it was run: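 Visual ratings on a 0 to 100 scale, where 100 means complete control, compared treated plants with controls after 13 to 15 days in a greenhouse. Treatment went into paddy water 3 cm deep over the soil, applied to plants at the 2-leaf stage.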

giant foxtail [6] = assay: Test A preemergence; assay type: in vivo, Setaria faberii
How it was run: as §2

wheat = assay: Test A postemergence; assay type: in vivo, Triticum aestivum; conditions: Triticum aestivum, post-emergence, 240 h, 0 to 100 scale where 0 is no effect and 100 is complete control
How it was run: as §2

barnyardgrass = assay: Test A postemergence; assay type: in vivo, Echinochloa crus-galli; conditions: Echinochloa crus-galli, post-emergence, 240 h, 0 to 100 scale where 0 is no effect and 100 is complete control
How it was run: as §2

waterhemp = assay: Test C preemergence; assay type: in vivo, Amaranthus rudis; conditions: Amaranthus tuberculatus, pre-emergence
How it was run: as §1

[7] = 31 g ai/ha, postemergence, visual rating, scale 0 to 100 (0 no effect, 100 complete control), 13 to 15 days

SMILES: FC(F)c1cccc(Oc2ncc(Cl)cn2)c1-n1cc(Br)cn1 [Compound 194, 2-[2-(4-bromo-1H-pyrazol-1-yl)-3-(difluoromethyl)phenoxy]-5-chloropyrimidine]
- Morningglory plant response rating (morningglory [1]; [7]): 50
- pest or weed control at 125 g/ha (morningglory [1]; Ipomoea, post-emergence, 125 g ai/ha, postemergence, visual rating, scale 0 to 100 (0 no effect, 100 complete control), read-out: Plant response rating, Morningglory): 80%
- pest or weed control at 250 g/ha (morningglory [1]; Ipomoea, post-emergence, 250 g ai/ha, postemergence, read-out: Plant response rating (0 to 100), Morningglory): 95%
- pest or weed control at 62 g/ha (morningglory [1]; Ipomoea, post-emergence, Postemergence, 62 g ai/ha, scale 0 to 100 (0 no effect, 100 complete control), 13 to 15 days, read-out: Plant response rating, Morningglory): 80%
- pest or weed control at 31 g/ha (giant foxtail [2]; 31 g ai/ha, postemergence, visual rating, scale 0 to 100 (0 no effect, 100 complete control), 13 to 15 days, read-out: Foxtail, Giant plant response rating): 10%
- pest or weed control at 125 g/ha (giant foxtail [2]; 125 g ai/ha, postemergence, visual rating, scale 0 to 100 (0 no effect, 100 complete control), read-out: Plant response rating, Foxtail, Giant): 15%
- pest or weed control at 250 g/ha (giant foxtail [2]; 250 g ai/ha, postemergence, read-out: Plant response rating (0 to 100), Foxtail, Giant): 15%
- pest or weed control at 62 g/ha (giant foxtail [2]; Postemergence, 62 g ai/ha, scale 0 to 100 (0 no effect, 100 complete control), 13 to 15 days, read-out: Plant response rating, Foxtail, Giant): 10%
- pest or weed control at 125 g/ha (velvetleaf [3]; 125 g ai/ha, preemergence, scale 0 (no effect) to 100 (complete control), read-out: Velvetleaf plant response rating): 100%
- pest or weed control at 250 g/ha (velvetleaf [3]; 250 g ai/ha, preemergence, scale 0 (no effect) to 100 (complete control), read-out: Velvetleaf plant response rating): 100%
- pest or weed control at 62 g/ha (velvetleaf [3]; Preemergence, 62 g ai/ha, scale 0 to 100, 0 no effect, 100 complete control, read-out: Plant response rating, Velvetleaf): 75%
- pest or weed control at 31 g/ha (galium; 31 g ai/ha, postemergence, visual rating, scale 0 to 100 (0 no effect, 100 complete control), 13 to 15 days, read-out: Galium plant response rating): 60%
- pest or weed control at 125 g/ha (galium; 125 g ai/ha, postemergence, visual rating, scale 0 to 100 (0 no effect, 100 complete control), read-out: Plant response rating, Galium): 85%
- pest or weed control at 250 g/ha (galium; 250 g ai/ha, postemergence, read-out: Plant response rating (0 to 100), Galium): 90%
- pest or weed control at 62 g/ha (galium; Postemergence, 62 g ai/ha, scale 0 to 100 (0 no effect, 100 complete control), 13 to 15 days, read-out: Plant response rating, Galium): 65%
- plant injury at 125 g/ha (corn; 125 g ai/ha, preemergence, scale 0 (no effect) to 100 (complete control), read-out: Corn plant response rating): 15%
- plant injury at 250 g/ha (corn; 250 g ai/ha, preemergence, scale 0 (no effect) to 100 (complete control), read-out: Corn plant response rating): 25%
- Corn plant response rating (crop injury, 0 = no effect, 100 = complete kill) at 62 g/ha (corn; Preemergence, 62 g ai/ha, scale 0 to 100, 0 no effect, 100 complete control): 0%
- Velvetleaf plant response rating (velvetleaf [4]; 125 g ai/ha): 100
- pest or weed control at 500 g/ha (velvetleaf [4]; Abutilon theophrasti, post-emergence, 240 h, 500 g ai/ha, read-out: Plant response rating, Velvetleaf): 100%
- Nutsedge, Yellow plant response rating (yellow nutsedge; [7]): 5
- pest or weed control at 125 g/ha (yellow nutsedge; Cyperus, post-emergence, 125 g ai/ha, postemergence, visual rating, scale 0 to 100 (0 no effect, 100 complete control), read-out: Plant response rating, Nutsedge, Yellow): 5%
- pest or weed control at 250 g/ha (yellow nutsedge; Cyperus, post-emergence, 250 g ai/ha, postemergence, read-out: Plant response rating (0 to 100), Nutsedge, Yellow): 5%
- pest or weed control at 62 g/ha (yellow nutsedge; Cyperus, post-emergence, Postemergence, 62 g ai/ha, scale 0 to 100 (0 no effect, 100 complete control), 13 to 15 days, read-out: Plant response rating, Nutsedge, Yellow): 5%
- Wheat plant response rating (wheat, winter; [7]): 0
- plant injury at 125 g/ha (wheat, winter; Triticum aestivum, post-emergence, 125 g ai/ha, postemergence, visual rating, scale 0 to 100 (0 no effect, 100 complete control), read-out: Plant response rating, Wheat): 0%
- plant injury at 250 g/ha (wheat, winter; Triticum aestivum, post-emergence, 250 g ai/ha, postemergence, read-out: Plant response rating (0 to 100), Wheat): 5%
- plant injury at 62 g/ha (wheat, winter; Triticum aestivum, post-emergence, Postemergence, 62 g ai/ha, scale 0 to 100 (0 no effect, 100 complete control), 13 to 15 days, read-out: Plant response rating, Wheat): 0%
- Ragweed plant response rating (ragweed; [7]): 15
- pest or weed control at 125 g/ha (ragweed; Ambrosia artemisiifolia, post-emergence, 125 g ai/ha, postemergence, visual rating, scale 0 to 100 (0 no effect, 100 complete control), read-out: Plant response rating, Ragweed): 50%
- pest or weed control at 250 g/ha (ragweed; Ambrosia artemisiifolia, post-emergence, 250 g ai/ha, postemergence, read-out: Plant response rating (0 to 100), Ragweed): 50%
- pest or weed control at 62 g/ha (ragweed; Ambrosia artemisiifolia, post-emergence, Postemergence, 62 g ai/ha, scale 0 to 100 (0 no effect, 100 complete control), 13 to 15 days, read-out: Plant response rating, Ragweed): 25%
- pest or weed control at 125 g/ha (morningglory [5]; 125 g ai/ha, preemergence, scale 0 (no effect) to 100 (complete control), read-out: Morningglory plant response rating): 95%
- pest or weed control at 250 g/ha (morningglory [5]; 250 g ai/ha, preemergence, scale 0 (no effect) to 100 (complete control), read-out: Morningglory plant response rating): 98%
- pest or weed control at 62 g/ha (morningglory [5]; Preemergence, 62 g ai/ha, scale 0 to 100, 0 no effect, 100 complete control, read-out: Plant response rating, Morningglory): 0%
- pest or weed control at 250 g/ha (sedge, umbrella): 95%
- Foxtail, Giant plant response rating (0 to 100 scale) (giant foxtail [6]; 125 g ai/ha): 100
- pest or weed control at 500 g/ha (giant foxtail [6]; Setaria faberi, pre-emergence, 240 h, 500 g ai/ha, 0 to 100 scale where 0 is no effect and 100 is complete control, read-out: Foxtail, Giant plant response rating): 100%
- plant injury at 125 g/ha (wheat; 125 g ai/ha, read-out: Wheat plant response rating): 30%
- plant injury at 500 g/ha (wheat; 500 g ai/ha, read-out: Plant response rating, Wheat): 60%
- pest or weed control at 125 g/ha (barnyardgrass; 125 g ai/ha, read-out: Barnyardgrass plant response rating): 80%
- pest or weed control at 500 g/ha (barnyardgrass; 500 g ai/ha, read-out: Plant response rating, Barnyardgrass): 90%
- pest or weed control at 125 g/ha (waterhemp; 125 g ai/ha, preemergence, scale 0 (no effect) to 100 (complete control), read-out: Waterhemp plant response rating): 100%
- pest or weed control at 250 g/ha (waterhemp; 250 g ai/ha, preemergence, scale 0 (no effect) to 100 (complete control), read-out: Waterhemp plant response rating): 100%
- pest or weed control at 62 g/ha (waterhemp; Preemergence, 62 g ai/ha, scale 0 to 100, 0 no effect, 100 complete control, read-out: Plant response rating, Waterhemp): 100%
